Reference: ChEMBL document CHEMBL2169826, “Pharmacokinetic benefits of 3,4-dimethoxy substitution of a phenyl ring and design of isosteres yielding orally available cathepsin K inhibitors” (J Med Chem, 2012)
In brackets after ≈: the same amount, converted by molar mass.

Legend:
[1] = Inhibition of osteoclastogenesis in human bone marrow-derived stem cells assessed as reduction of pit formation by measuring TRACP5b activity after 7 days by bone TRAP assay; assay type: functional; settings: 168 h
in vivo = settings: Alderley Park Han Wistar, rat, plasma, iv, 2 mg/kg
[2] = Metabolic stability of the compound in human liver microsomes assessed as compound turnover after 120 mins
[3] = Percentage unbound in human plasma; assay type: ADME, cell-free
[4] = Oral bioavailability in Alderley Park Han Wistar rat at 2 mg/kg; assay type: ADME, organism-based; settings: in vivo
Procathepsin L = Procathepsin L (Homo sapiens, UniProt P07711); assay: Inhibition of human recombinant cathepsin-L using Z-Phe-Arg-AMC as substrate preincubated for 15 mins measured after 1 hr by QFRET assay
Chain of Procathepsin L (P07711 whole entry): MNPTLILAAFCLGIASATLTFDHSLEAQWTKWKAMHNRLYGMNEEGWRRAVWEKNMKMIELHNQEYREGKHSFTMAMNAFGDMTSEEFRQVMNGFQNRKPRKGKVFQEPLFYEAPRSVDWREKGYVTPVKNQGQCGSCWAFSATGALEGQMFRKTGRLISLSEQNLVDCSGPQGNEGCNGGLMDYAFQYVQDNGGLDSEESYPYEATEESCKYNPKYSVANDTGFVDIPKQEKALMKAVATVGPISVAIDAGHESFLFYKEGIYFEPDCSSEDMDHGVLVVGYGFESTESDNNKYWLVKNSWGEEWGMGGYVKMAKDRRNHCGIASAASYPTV

[5] = Aqueous solubility of the compound in at pH 7.4; settings: buffer
in vitro [6] = settings: rat, hepatocytes
[7] = Percentage unbound in rat plasma; assay type: ADME, cell-free
[8] = Volume of distribution at steady state in Alderley Park Han Wistar rat at 2 mg/kg, iv and 2 mg/kg, po; assay type: ADME, organism-based; settings: in vivo, read-out: Vdss
[9] = Metabolic stability of the compound in rat liver microsomes assessed as compound turnover after 120 mins
Cathepsin B = Cathepsin B (Homo sapiens, UniProt P07858); assay: Inhibition of human recombinant cathepsin-B using Z-Arg-Arg-AMC as substrate preincubated for 15 mins measured after 1 hr by QFRET assay
physchem = settings: buffer, pH 7.4
Cathepsin K = biological target: T1, Cathepsin K (Homo sapiens, UniProt P43235); assay: Inhibition of human recombinant cathepsin-k using Z-Phe-Arg-AMC as substrate preincubated for 15 mins measured after 1 hr by QFRET assay
T1 sequence (P43235 whole entry): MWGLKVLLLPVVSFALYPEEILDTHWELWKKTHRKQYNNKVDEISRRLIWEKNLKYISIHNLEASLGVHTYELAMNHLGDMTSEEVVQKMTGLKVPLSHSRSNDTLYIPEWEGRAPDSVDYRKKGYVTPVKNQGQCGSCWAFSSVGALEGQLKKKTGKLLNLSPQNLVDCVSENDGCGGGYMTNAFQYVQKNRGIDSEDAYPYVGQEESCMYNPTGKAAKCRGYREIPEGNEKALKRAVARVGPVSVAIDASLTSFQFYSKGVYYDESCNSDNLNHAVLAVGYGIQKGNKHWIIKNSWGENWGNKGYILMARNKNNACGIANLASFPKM

Cathepsin S = Cathepsin S (Homo sapiens, UniProt P25774); assay: Inhibition of human recombinant cathepsin-S using Z-Val-Val-Arg-AMC as substrate preincubated for 15 mins measured after 1 hr by QFRET assay
Chain of Cathepsin S (P25774 whole entry): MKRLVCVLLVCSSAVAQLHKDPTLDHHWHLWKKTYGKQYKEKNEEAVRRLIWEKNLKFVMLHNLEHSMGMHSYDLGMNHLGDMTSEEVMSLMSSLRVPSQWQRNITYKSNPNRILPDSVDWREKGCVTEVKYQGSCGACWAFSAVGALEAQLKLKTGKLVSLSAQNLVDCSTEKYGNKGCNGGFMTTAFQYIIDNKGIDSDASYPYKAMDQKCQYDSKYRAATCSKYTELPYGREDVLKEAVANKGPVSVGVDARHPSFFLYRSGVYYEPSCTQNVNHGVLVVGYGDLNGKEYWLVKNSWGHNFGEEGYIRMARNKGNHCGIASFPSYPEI

in vitro [10] = settings: human, hepatocytes
Homo sapiens = species: Homo sapiens; assay: Selectivity ratio of IC50 for human recombinant cathepsin-K to IC50 for human recombinant cathepsin-B
Cytochrome P450 3A4 = Cytochrome P450 3A4 (Homo sapiens, UniProt P08684); assay: Inhibition of CYP3A4; assay type: ADME
Chain of Cytochrome P450 3A4 (P08684 whole entry): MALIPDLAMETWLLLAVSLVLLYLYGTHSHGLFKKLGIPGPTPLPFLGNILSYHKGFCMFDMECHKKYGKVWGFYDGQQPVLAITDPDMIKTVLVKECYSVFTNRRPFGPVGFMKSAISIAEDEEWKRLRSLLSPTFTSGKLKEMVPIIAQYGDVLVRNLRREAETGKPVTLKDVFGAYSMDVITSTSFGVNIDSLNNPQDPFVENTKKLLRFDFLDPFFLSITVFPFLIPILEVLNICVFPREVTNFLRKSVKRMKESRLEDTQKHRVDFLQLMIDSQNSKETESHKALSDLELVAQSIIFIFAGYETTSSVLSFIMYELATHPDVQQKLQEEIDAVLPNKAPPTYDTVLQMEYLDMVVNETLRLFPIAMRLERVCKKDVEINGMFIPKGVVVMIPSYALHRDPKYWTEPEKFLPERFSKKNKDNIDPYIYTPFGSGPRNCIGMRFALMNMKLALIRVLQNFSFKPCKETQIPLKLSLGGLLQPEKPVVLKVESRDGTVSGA

Row | SMILES | clearance (in vivo) [mL/min/kg] | microsomal CLint at 2 h [2] [µL/min/mg] | fraction unbound [3] | bioavailability [4] [%] | IC50 (Procathepsin L) [µM] | solubility [5] [µM] | hepatocyte CLint (in vitro [6]) [µL/min/1e6 cells] | fraction unbound [7] | Vd [8] [L/kg] | microsomal CLint at 2 h [9] [µL/min/mg] | IC50 (Cathepsin B) [µM] | logD (physchem) | IC50 (Cathepsin K) [µM] | IC50 (Cathepsin S) [µM] | hepatocyte CLint (in vitro [10]) [µL/min/1e6 cells] | Ratio IC50 (Homo sapiens) | INH (Cytochrome P450 3A4) [µM] | IC50 [1] [µM]
1 | CC(C)(F)C[C@H](N[C@@H](c1ccc(-c2ccc(S(C)(=O)=O)cc2)cc1)C(F)(F)F)C(=O)NC1(C#N)CC1 [ODANACATIB] | – | – | – | – | – | – | – | – | – | – | – | – | – | – | – | – | – | 0.1
2 | COc1ccc(N2CCN(C(=O)[C@@H]3CCCC[C@H]3C(=O)NC3(C#N)CC3)CC2)cc1 | > 73 | < 2 | 0.46 | 3.5 | > 10 | > 2000 | 42 | 0.25 | 1.1 | 48 | 1.44 | 1.7 | 0.014 | – | – | – | – | –
3 | CS(=O)(=O)c1ccc(N2CCN(C(=O)[C@@H]3CCCC[C@H]3C(=O)NCC#N)CC2)cc1 | – | < 2 | > 0.5 | – | > 10 | 280 (≈ 121 µg/mL) | – | – | – | < 5.3 | 1.18 | 0.67 | 0.011 | 1.29 | – | – | – | –
4 | COc1cccc2c3c([nH]c12)CCN(C(=O)[C@@H]1CCCC[C@H]1C(=O)NC1(C#N)CC1)C3 | – | – | – | – | – | – | – | – | – | – | – | – | – | – | – | – | – | 0.032
5 | COc1ccc(N2CCN(C(=O)[C@@H]3CCCC[C@H]3C(=O)NCC#N)CC2)cc1 | – | 7.1 | > 0.5 | – | > 10 | 390 (≈ 150 µg/mL) | – | – | – | 77 | 0.399 | 1.6 | 0.006 | 1.05 | – | – | – | –
6 | COc1cccc(N2CCN(C(=O)[C@@H]3CCCC[C@H]3C(=O)NCC#N)CC2)c1 | – | 5.6 | – | – | > 10 | – | – | – | – | 149 | – | – | 0.008 | – | – | – | – | –
7 | COc1ccc(N2CCN(C(=O)[C@@H]3CCCC[C@H]3C(=O)NC3(C#N)CC3)[C@H](C)C2)nc1OC | 15 | 4.2 | 0.24 | 55 | > 10 | > 1700 | < 2 | 0.41 | 0.7 | 13 | 1.69 | 2.3 | 0.005 | 1.1 | – | – | – | –
8 | C[C@@H]1CN(c2ccc(S(C)(=O)=O)cc2)C[C@H](C)N1C(=O)[C@@H]1CCCC[C@H]1C(=O)NC1(C#N)CC1 | – | < 2 | – | – | > 10 | – | – | – | – | < 2 | 24.9 | – | 0.211 | > 11.8 | – | – | – | –
9 | CC1CN(c2ccc(S(C)(=O)=O)cc2)C(C)CN1C(=O)[C@@H]1CCCC[C@H]1C(=O)NC1(C#N)CC1 (stereo partly drawn) | – | < 2 | – | – | > 10 | – | – | – | – | 4.3 | 40 | – | 0.312 | > 7.43 | – | – | – | –
10 | N#CCNC(=O)[C@@H]1CCCC[C@H]1C(=O)N1CCN(c2ccccc2)CC1 | – | – | > 0.5 | – | > 10 | – | – | – | – | – | – | – | – | – | – | – | – | –
11 | N#CCNC(=O)[C@@H]1CCCC[C@H]1C(=O)N1CCN(c2ccc(F)cc2)CC1 | – | < 2.9 | 0.39 | – | > 10 | > 3700 | – | – | – | 31 | 0.315 | 1.9 | 0.023 | 1.68 | – | – | – | –
12 | CCCN1CCN(c2ccc(C(=O)NC3(C(=O)NCC#N)CCCCC3)cc2)CC1 [BALICATIB] | – | – | – | – | – | – | – | – | – | – | – | – | – | – | – | – | – | 0.0266
13 | COc1ccc(N2CCN(C(=O)[C@@H]3CCCC[C@H]3C(=O)NCC#N)CC2)cc1OC | – | 2.2 | – | – | > 10 | – | – | – | – | 6.8 | 1.27 | – | 0.006 | 1.09 | – | 211 | – | –
14 | N#CCNC(=O)[C@@H]1CCCC[C@H]1C(=O)N1CCN(c2ccc(C#N)cc2)CC1 | – | – | 0.53 | – | > 10 | – | – | – | – | – | – | 1.8 | 0.025 | 2.6 | – | – | – | –
15 | CC1(C)CN(c2ccc(S(C)(=O)=O)cc2)CCN1C(=O)[C@@H]1CCCC[C@H]1C(=O)NC1(C#N)CC1 | – | < 2 | – | – | > 10 | – | – | – | – | 4.9 | 3.51 | – | 0.045 | 3.75 | – | – | – | –
16 | Cc1ccc(N2CCN(C(=O)[C@@H]3CCCC[C@H]3C(=O)NCC#N)CC2)cc1 | – | – | – | – | > 10 | – | – | – | – | – | 0.572 | – | 0.011 | – | – | – | – | –
17 | CS(=O)(=O)c1ccc(N2CCN(C(=O)[C@@H]3CCCC[C@H]3C(=O)NC3(C#N)CC3)CC2)cc1 | 22 | < 2 | > 0.5 | 16 | > 10 | 2500 (≈ 1150 µg/mL) | – | – | – | < 2.2 | 2.4 | – | 0.018 | 2.15 | – | – | – | –

Now from value to molecule, other results behind:

Row | clearance (in vivo) [mL/min/kg] | microsomal CLint at 2 h [2] [µL/min/mg] | fraction unbound [3] | bioavailability [4] [%] | IC50 (Procathepsin L) [µM] | solubility [5] [µM] | hepatocyte CLint (in vitro [6]) [µL/min/1e6 cells] | fraction unbound [7] | Vd [8] [L/kg] | microsomal CLint at 2 h [9] [µL/min/mg] | IC50 (Cathepsin B) [µM] | logD (physchem) | IC50 (Cathepsin K) [µM] | IC50 (Cathepsin S) [µM] | hepatocyte CLint (in vitro [10]) [µL/min/1e6 cells] | Ratio IC50 (Homo sapiens) | INH (Cytochrome P450 3A4) [µM] | SMILES | IC50 [1] [µM]
18 | 29 | 9.3 | 0.2 | 21 | > 10 | 600 (≈ 270 µg/mL) | 9.4 | 0.14 | 2.1 | – | 0.603 | 2.7 | 0.016 | 0.807 | 30 | – | – | Cc1noc2cc(N3CCN(C(=O)[C@@H]4CCCC[C@H]4C(=O)NC4(C#N)CC4)[C@H](C)C3)ccc12 | –
19 | – | 9.4 | – | – | > 10 | – | – | – | – | < 2 | 0.977 | – | 0.012 | 0.549 | – | – | – | C[C@@H]1CN(c2ccc(S(C)(=O)=O)cc2)CCN1C(=O)[C@@H]1CCCC[C@H]1C(=O)NC1(C#N)CC1 | –
20 | – | < 2 | – | – | > 10 | – | – | – | – | < 2 | 3.43 | – | 0.059 | 1.51 | – | – | – | C[C@H]1CN(c2ccc(S(C)(=O)=O)cc2)CCN1C(=O)[C@@H]1CCCC[C@H]1C(=O)NC1(C#N)CC1 | –
21 | – | – | 0.49 | 1.4 | > 10 | – | – | 0.62 | 4.1 | – | 2.94 | 1.9 | 0.017 | 1.75 | – | – | – | Cc1nnc(C)c2cc(N3CCN(C(=O)[C@@H]4CCCC[C@H]4C(=O)NC4(C#N)CC4)[C@H](C)C3)ccc12 | –
22 | 39 | 9 | 0.081 | 57 | > 10 | 200 (≈ 92.9 µg/mL) | 13 | 0.072 | 2.8 | 33 | 1.14 | 3.5 | 0.003 | 1.37 | 25 | – | 1.6 | COc1cc(N2CCN(C(=O)[C@@H]3CCCC[C@H]3C(=O)NC3(C#N)CC3)[C@H](C)C2)ccc1C1CC1 | –
23 | 19 | 8.8 | 0.28 | 87 | > 10 | > 1100 | 4.6 | 0.3 | 2.5 | 15 | 0.766 | 2.7 | 0.008 | 1.25 | 4.7 | – | – | Cc1nn(C)c2cc(N3CCN(C(=O)[C@@H]4CCCC[C@H]4C(=O)NC4(C#N)CC4)[C@H](C)C3)ccc12 | –
24 | – | 8.8 | – | – | > 10 | – | – | – | – | 83 | 0.645 | – | 0.009 | 1.15 | – | – | – | C[C@@H]1CN(c2ccc3c(c2)OCO3)CCN1C(=O)[C@@H]1CCCC[C@H]1C(=O)NC1(C#N)CC1 | –
25 | – | – | 0.25 | 64 | > 10 | > 1400 | – | 0.27 | 2.5 | – | 0.971 | 2.8 | 0.009 | 1.23 | – | – | – | Cc1nn(C)c2ccc(N3CCN(C(=O)[C@@H]4CCCC[C@H]4C(=O)NC4(C#N)CC4)[C@H](C)C3)cc12 | –
26 | 19 | 6.9 | > 0.28 | 0.2 | > 10 | – | 36 | 0.28 | 1.1 | 107 | 1.44 | – | 0.015 | 2.26 | – | – | – | N#CC1(NC(=O)[C@@H]2CCCC[C@H]2C(=O)N2CCN(c3ccccc3)CC2)CC1 | –
27 | – | 16 | – | – | > 10 | – | – | – | – | > 347 | 0.462 | – | 0.006 | 1.22 | – | – | – | C[C@@H]1CN(c2ccccc2)CCN1C(=O)[C@@H]1CCCC[C@H]1C(=O)NCC#N | –
28 | – | 20 | – | – | > 10 | – | – | – | – | > 347 | 0.649 | 2.4 | 0.011 | 1.3 | – | – | – | C[C@@H]1CN(c2ccccc2)CCN1C(=O)[C@@H]1CCCC[C@H]1C(=O)NC1(C#N)CC1 | –
